Experimental findings from ChEMBL document CHEMBL5360621, “Discovery and Optimization of a STING Agonist Platform for Application in Antibody Drug Conjugates” (J Med Chem, 2023) are described below.

SMILES strings stand for the structures. Some results are limits rather than exact numbers.

Stimulator of interferon genes protein, sequence (Q86WV6 whole entry): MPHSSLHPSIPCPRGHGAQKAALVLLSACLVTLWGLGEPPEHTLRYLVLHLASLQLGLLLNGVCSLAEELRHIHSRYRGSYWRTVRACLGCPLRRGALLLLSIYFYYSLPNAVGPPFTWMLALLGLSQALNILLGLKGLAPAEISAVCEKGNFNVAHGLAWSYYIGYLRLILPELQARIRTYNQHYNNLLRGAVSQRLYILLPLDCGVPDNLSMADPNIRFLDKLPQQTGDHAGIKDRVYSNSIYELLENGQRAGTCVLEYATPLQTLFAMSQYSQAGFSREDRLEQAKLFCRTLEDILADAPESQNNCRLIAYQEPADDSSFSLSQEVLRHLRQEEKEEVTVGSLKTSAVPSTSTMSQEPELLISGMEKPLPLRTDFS

This test concerns the target Stimulator of interferon genes protein (Homo sapiens, UniProt Q86WV6). The test is described as follows: Agonist activity at STING in digitonin-permeabilized human THP1-Dual cells expressing NF-kappaB-SEAP and IRF-Lucia luciferase reporter assessed as increase in IRF-luciferase activation incubated for 24 hrs by QUANTI-Luc assay. It counts as cell-based.
Regarding `CCn1nc(C)cc1C(=O)Nc1nc2cc(C(N)=O)cc(OC)c2n1C/C=C/Cn1c(NC(=O)c2cc(C)nn2CC)nc2cc(C(N)=O)cc(OCCCN)c21`, the EC50 – broadly, the midpoint of the concentration-response curve – came out at 10 nM.
The value for `CCn1nc(C)cc1C(=O)/N=c1\sc2cc(C(N)=O)cc(OC)c2n1C/C=C/Cn1c(NC(=O)c2cc(C)nn2CC)nc2cc(C(N)=O)cc(OCCCO)c21` was 5 nM.
With `CCc1nc(C)oc1C(=O)Nc1nc2cc(C(N)=O)cc(OC)c2n1C/C=C/Cn1c(NC(=O)c2cc(C)nn2CC)nc2cc(C(N)=O)cc(OCCCO)c21`, the EC50 is 9 nM.
The value for `CCc1nc(C)oc1C(=O)Nc1nc2cc(C(N)=O)cc(OCCCO)c2n1C/C=C/Cn1/c(=N/C(=O)c2cc(C)nn2CC)sc2cc(C(N)=O)cc(OC)c21` was 20 nM; that for `CCc1nc(C)oc1C(=O)Nc1nc2cc(C(N)=O)cnc2n1C/C=C/Cn1c(NC(=O)c2oc(C)nc2CC)nc2cc(C(N)=O)cc(OCCCO)c21` was 7 nM.
Regarding `CCc1nc(C)oc1C(=O)/N=c1\sc2cc(C(N)=O)cnc2n1C/C=C/Cn1c(NC(=O)c2oc(C)nc2CC)nc2cc(C(N)=O)cc(OCCCO)c21`, the EC50 stood at 90 nM.
Take `COc1cc(C(N)=O)cc2nc(NC(=O)c3cnc(C)n3C)n(C/C=C/Cn3c(NC(=O)c4cnc(C)n4C)nc4cc(C(N)=O)cc(OCCCO)c43)c12`: the EC50 was above 100000 nM.
The value for `CCc1nn(C)cc1C(=O)Nc1nc2cc(C(N)=O)cc(OC)c2n1C/C=C/Cn1c(NC(=O)c2cn(C)nc2CC)nc2cc(C(N)=O)cc(OCCCO)c21` was 5000 nM.
Regarding `CCn1nc(C)cc1C(=O)Nc1nc2cc(C(N)=O)cnc2n1C/C=C/Cn1c(NC(=O)c2cc(C)nn2CC)nc2cc(C(N)=O)cc(OCCCO)c21`, the EC50 stood at 60 nM.
The value for `CCc1nc(C)oc1C(=O)Nc1nc2cc(C(N)=O)cc(OC)c2n1C/C=C/Cn1c(NC(=O)c2oc(C)nc2CC)nc2cc(C(N)=O)cc(OCCCO)c21` was 1 nM.
Take `CCc1nc(C)oc1C(=O)/N=c1\sc2cc(C(N)=O)cc(OCCCO)c2n1C/C=C/Cn1c(NC(=O)c2oc(C)nc2CC)nc2cc(C(N)=O)cnc21`: the EC50 came to 150 nM.
The value for `COc1cc(C(N)=O)cc2nc(NC(=O)c3cnc(C)o3)n(C/C=C/Cn3c(NC(=O)c4cnc(C)o4)nc4cc(C(N)=O)cc(OCCCO)c43)c12` was above 100000 nM.
The value for `CCc1nc(C)sc1C(=O)Nc1nc2cc(C(N)=O)cc(OC)c2n1C/C=C/Cn1c(NC(=O)c2sc(C)nc2CC)nc2cc(C(N)=O)cc(OCCCO)c21` was 270 nM; that for `COc1cc(C(N)=O)cc2nc(NC(=O)c3nc(C)oc3C)n(C/C=C/Cn3c(NC(=O)c4nc(C)oc4C)nc4cc(C(N)=O)cc(OCCCO)c43)c12` was above 100000 nM.
The value for `CCc1nc(C)oc1C(=O)Nc1nc2cc(C(N)=O)cc(OCCCO)c2n1C/C=C/Cn1c(NC(=O)c2cc(C)nn2CC)nc2cc(C(N)=O)cnc21` was 4 nM; that for `CCc1nc(C)oc1C(=O)/N=c1\sc2cc(C(N)=O)cc(OC)c2n1C/C=C/Cn1c(NC(=O)c2oc(C)nc2CC)nc2cc(C(N)=O)cc(OCCCO)c21` was 60 nM.
Turning to `CCn1nc(C)cc1C(=O)Nc1nc2cc(C(N)=O)cc(OC)c2n1C/C=C/Cn1c(NC(=O)c2cc(C)nn2CC)nc2cc(C(N)=O)cc(OCCCO)c21`, the EC50 was found to be 1 nM.
The value for `CCc1nc(C)sc1C(=O)Nc1nc2cc(C(N)=O)cc(OCCCO)c2n1C/C=C/Cn1c(NC(=O)c2cc(C)nn2CC)nc2cc(C(N)=O)cc(OC)c21` was 20 nM.
The value for `CCc1ncoc1C(=O)/N=c1\sc2cc(C(N)=O)cc(OC)c2n1C/C=C/Cn1c(NC(=O)c2ocnc2CC)nc2cc(C(N)=O)cc(OCCCO)c21` was above 100000 nM.
The value for `CCc1nn(C)cc1C(=O)Nc1nc2cc(C(N)=O)cc(OCCCO)c2n1C/C=C/Cn1c(NC(=O)c2cc(C)nn2CC)nc2cc(C(N)=O)cc(OC)c21` was 20 nM; that for `CCn1nc(C)cc1C(=O)Nc1nc2cc(C(N)=O)cc(OC)c2n1C/C=C/Cn1c(NC(=O)c2cc(C)nn2CC)nc2cc(C(N)=O)cc(OCCCC(=O)O)c21` was 18 nM; that for `CCn1nc(C)cc1C(=O)/N=c1\sc2cc(C(N)=O)cc(OC)c2n1C/C=C/Cn1c(NC(=O)c2oc(C)nc2C)nc2cc(C(N)=O)cc(OCCCO)c21` was above 100000 nM.
`CCc1nc(C)oc1C(=O)Nc1nc2cc(C(N)=O)cc(OC)c2n1C/C=C/Cn1c(NC(=O)c2cnc(C)o2)nc2cc(C(N)=O)cc(OCCCO)c21`: the EC50 was above 100000 nM.
Turning to `CCn1nc(C)cc1C(=O)Nc1nc2cc(C(N)=O)cnc2n1C/C=C/Cn1c(NC(=O)c2oc(C)nc2C)nc2cc(C(N)=O)cc(OCCCO)c21`, the EC50 was found to be 3200 nM.
The value for `CCc1nc(C)oc1C(=O)Nc1nc2cc(C(N)=O)cc(OCCCO)c2n1C/C=C/Cn1c(NC(=O)c2cc(C)nn2CC)nc2cc(C(N)=O)cc(OC)c21` was 1 nM.
